Values of other authors in US6747006B2, “Use of GLP-1 or analogs in treatment of myocardial infarction” (Eli Lilly and Company, priority 1996, dated 2004).

Tested on: diabetic patients during acute myocardial infarction
Conditions: insulin and glucose infusion, then subcutaneous multidose insulin; compared with control group of diabetics without insulin treatment

Insulin: insulin given as control by continuous infusion or subcutaneous injection
lowering of mortality during the year following myocardial infarction: 30%
